Among the data in patent US20090181963A1, “3H-[1,2,3]TRIAZOLO[4,5-D]PYRIMIDINE COMPOUNDS, THEIR USE AS mTOR KINASE AND PI3 KINASE INHIBITORS, AND THEIR [sequence]” (Wyeth, priority 2008, published 2009) are IC50 values, retold here.

Test [1] has as its target PI3 Kinase γ (Homo sapiens, UniProt P48736). Nature of the test: Fluorescence polarization assay for PI3K (PI3 Kinase γ). In kind it is biochemical. As to conditions: diC8-PI(4,5)P2 substrate, 25 μM ATP, one hour at 25° C. In general terms: Fluorescence polarisation rises when a labelled molecule tumbles more slowly, as on binding a larger partner.
For test [2], the target named is PI3 Kinase α (Homo sapiens, UniProt P42336). Nature of the test: Fluorescence polarization assay for PI3K (PI3 Kinase α). The format is biochemical. To be noted: diC8-PI(4,5)P2 substrate, 25 μM ATP, one hour at 25° C.
Chain of PI3 Kinase α (P42336 whole entry): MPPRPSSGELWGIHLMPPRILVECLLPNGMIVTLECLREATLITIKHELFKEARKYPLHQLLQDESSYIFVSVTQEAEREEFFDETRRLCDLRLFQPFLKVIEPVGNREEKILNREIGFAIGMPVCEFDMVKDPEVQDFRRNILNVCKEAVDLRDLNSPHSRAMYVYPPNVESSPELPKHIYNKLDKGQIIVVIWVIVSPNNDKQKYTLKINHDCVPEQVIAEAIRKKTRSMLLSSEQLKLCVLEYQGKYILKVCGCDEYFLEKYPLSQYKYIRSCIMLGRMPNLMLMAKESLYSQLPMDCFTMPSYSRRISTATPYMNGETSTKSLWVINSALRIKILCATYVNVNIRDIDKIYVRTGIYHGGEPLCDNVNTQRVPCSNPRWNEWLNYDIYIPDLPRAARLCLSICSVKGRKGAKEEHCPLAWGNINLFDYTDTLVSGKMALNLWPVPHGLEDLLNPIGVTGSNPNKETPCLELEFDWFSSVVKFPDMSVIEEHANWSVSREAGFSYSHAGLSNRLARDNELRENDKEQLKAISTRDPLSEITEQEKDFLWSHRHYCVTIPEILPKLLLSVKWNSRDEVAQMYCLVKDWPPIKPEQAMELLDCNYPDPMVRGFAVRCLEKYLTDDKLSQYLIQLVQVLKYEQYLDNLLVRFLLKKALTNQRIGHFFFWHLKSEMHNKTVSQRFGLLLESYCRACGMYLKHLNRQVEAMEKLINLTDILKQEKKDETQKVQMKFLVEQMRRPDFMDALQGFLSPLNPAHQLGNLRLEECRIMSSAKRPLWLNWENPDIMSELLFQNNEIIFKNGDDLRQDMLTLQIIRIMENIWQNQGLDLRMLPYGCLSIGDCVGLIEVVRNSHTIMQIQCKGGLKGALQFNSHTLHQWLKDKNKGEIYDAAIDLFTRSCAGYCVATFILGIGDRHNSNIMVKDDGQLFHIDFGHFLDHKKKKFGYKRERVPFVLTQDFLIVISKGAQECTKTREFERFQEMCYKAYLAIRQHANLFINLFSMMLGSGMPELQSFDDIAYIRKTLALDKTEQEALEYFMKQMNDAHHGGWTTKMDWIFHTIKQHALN
Chain of PI3 Kinase α (P27986 whole entry partner): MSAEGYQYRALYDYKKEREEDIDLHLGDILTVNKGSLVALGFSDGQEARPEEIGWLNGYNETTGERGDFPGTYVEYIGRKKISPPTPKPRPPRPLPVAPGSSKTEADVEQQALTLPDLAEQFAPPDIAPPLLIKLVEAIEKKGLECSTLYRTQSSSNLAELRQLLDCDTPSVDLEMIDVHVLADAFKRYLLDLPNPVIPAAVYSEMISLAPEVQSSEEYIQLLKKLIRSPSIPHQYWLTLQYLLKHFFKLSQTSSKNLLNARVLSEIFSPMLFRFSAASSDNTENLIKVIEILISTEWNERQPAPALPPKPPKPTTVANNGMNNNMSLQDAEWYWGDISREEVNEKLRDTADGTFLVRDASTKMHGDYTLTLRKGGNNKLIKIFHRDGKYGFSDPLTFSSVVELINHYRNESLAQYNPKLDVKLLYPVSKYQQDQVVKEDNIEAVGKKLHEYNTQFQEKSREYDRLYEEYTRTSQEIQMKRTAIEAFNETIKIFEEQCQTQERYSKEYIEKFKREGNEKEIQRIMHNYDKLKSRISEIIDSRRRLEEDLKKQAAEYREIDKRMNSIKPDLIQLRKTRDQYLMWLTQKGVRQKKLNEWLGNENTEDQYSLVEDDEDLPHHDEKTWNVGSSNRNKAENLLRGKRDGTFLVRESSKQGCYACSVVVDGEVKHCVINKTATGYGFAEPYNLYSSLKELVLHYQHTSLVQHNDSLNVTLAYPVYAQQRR

Chain of PI3 Kinase γ (P48736 whole entry): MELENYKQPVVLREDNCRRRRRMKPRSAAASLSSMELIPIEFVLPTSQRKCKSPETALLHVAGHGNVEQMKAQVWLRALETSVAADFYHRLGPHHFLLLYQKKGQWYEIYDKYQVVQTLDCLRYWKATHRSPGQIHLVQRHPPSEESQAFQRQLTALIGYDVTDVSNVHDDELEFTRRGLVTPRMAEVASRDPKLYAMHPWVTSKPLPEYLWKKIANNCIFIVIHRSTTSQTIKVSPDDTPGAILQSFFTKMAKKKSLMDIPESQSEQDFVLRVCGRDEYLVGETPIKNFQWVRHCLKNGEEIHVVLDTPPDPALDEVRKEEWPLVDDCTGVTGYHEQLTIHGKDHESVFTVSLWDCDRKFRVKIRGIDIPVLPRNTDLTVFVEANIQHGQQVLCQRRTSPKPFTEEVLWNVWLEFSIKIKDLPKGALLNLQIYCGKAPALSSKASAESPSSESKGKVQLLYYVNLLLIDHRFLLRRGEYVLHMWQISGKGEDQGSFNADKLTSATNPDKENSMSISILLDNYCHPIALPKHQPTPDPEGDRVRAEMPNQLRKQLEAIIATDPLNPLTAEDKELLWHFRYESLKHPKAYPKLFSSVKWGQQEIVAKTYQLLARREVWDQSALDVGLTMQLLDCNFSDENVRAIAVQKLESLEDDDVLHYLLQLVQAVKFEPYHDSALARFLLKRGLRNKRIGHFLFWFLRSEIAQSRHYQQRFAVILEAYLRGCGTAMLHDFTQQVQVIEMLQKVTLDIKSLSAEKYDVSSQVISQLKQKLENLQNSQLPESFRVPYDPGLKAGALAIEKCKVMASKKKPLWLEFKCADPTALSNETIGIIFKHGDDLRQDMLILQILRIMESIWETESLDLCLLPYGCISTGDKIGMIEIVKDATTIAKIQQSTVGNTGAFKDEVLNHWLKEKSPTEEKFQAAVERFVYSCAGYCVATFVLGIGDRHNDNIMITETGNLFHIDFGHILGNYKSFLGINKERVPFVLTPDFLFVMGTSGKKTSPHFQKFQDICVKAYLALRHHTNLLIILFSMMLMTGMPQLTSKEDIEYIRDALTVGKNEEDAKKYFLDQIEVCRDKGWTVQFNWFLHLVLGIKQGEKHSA

Usually IC50 stands for the concentration at which inhibition is half-maximal. A lower IC50 goes with greater potency in that assay. `CCn1nnc2c(N3CCOCC3)nc(-c3ccc(NC(=O)Nc4ccc(C(=O)N5CCC(N6CCCCC6)CC5)cc4)cc3)nc21` [Example 50, 1-[4-(1,4′-bipiperidin-1′-ylcarbonyl)phenyl]-3-[4-(3-ethyl-7-morpholin-4-yl-3H-[1,2,3]triazolo[4,5-d]pyrimidin-5-yl)phenyl]urea]: the concentration for half-maximal inhibition (IC50) is 18 nM in test [1] and 1.8 nM in test [2].

As to `CN1CCC(n2nnc3c(N4CCOCC4)nc(-c4cncc(O)c4)nc32)CC1` [Example 22, 5-[3-(1-methylpiperidin-4-yl)-7-morpholin-4-yl-3H-[1,2,3]triazolo[4,5-d]pyrimidin-5-yl]pyridin-3-ol], the IC50 in test [1] was 318 nM; in test [2], 304 nM.

For `O=C(c1ccc(F)cc1)N1CCN(CCn2nnc3c(N4CCOCC4)nc(-c4cccc(O)c4)nc32)CC1` [Example 101, 3-(3-{2-[4-(4-fluorobenzoyl)piperazin-1-yl]ethyl}-7-morpholin-4-yl-3H-[1,2,3]triazolo[4,5-d]pyrimidin-5-yl)phenol], the concentration for half-maximal inhibition (IC50) in test [1] was 3550 nM; in test [2] it was 538 nM.

`O=C(Nc1ccccc1)Nc1ccc(-c2nc(N3CCOCC3)c3nnn(CC4CN(C(=O)c5ccccc5)C4)c3n2)cc1` [Example 190, 1-(4-{3-[(1-benzoylazetidin-3-yl)methyl]-7-morpholin-4-yl-3H-[1,2,3]triazolo[4,5-d]pyrimidin-5-yl}phenyl)-3-phenylurea]: the IC50 in test [1] was 346 nM; in test [2], 19 nM.

Regarding `Nc1ncc(CN2CCC(n3nnc4c(N5CCOCC5)nc(-c5cncc(O)c5)nc43)CC2)s1` [Example 171, 5-(3-{1-[(2-amino-1,3-thiazol-5-yl)methyl]piperidin-4-yl}-7-morpholin-4-yl-3H-[1,2,3]triazolo[4,5-d]pyrimidin-5-yl)pyridin-3-ol], the IC50 in test [1] worked out at 144 nM; in test [2], 76.5 nM.

Take `CCn1nnc2c(N3CCOCC3)nc(-c3ccc(NC(=O)NCCN(C)C)cc3)nc21` [Example 34, 1-[2-(dimethylamino)ethyl]-3-[4-(3-ethyl-7-morpholin-4-yl-3H-[1,2,3]triazolo[4,5-d]pyrimidin-5-yl)phenyl]urea]: the half-maximal inhibitory concentration (IC50) is 309 nM in test [1] and 132 nM in test [2].

Regarding `O=C(Nc1ccc(-c2nc(N3CCOCC3)c3nnn(CC(F)(F)F)c3n2)cc1)Nc1cccs1` [Example 141, 1-{4-[7-morpholin-4-yl-3-(2,2,2-trifluoroethyl)-3H-[1,2,3]triazolo[4,5-d]pyrimidin-5-yl]phenyl}-3-(2-thienyl)urea], the half-inhibitory concentration (IC50) in test [1] came to 30 nM; in test [2], 6.5 nM.

For `CC(C)(C)OC(=O)N1CCC(NC(=O)c2ccc(Cn3nnc4c(N5CCOCC5)nc(-c5cccc(O)c5)nc43)cc2)CC1` [Example 208, tert-butyl 4-[(4-{[5-(3-hydroxyphenyl)-7-morpholin-4-yl-3H-[1,2,3]triazolo[4,5-d]pyrimidin-3-yl]methyl}benzoyl)amino]piperidine-1-carboxylate], the 50% inhibitory concentration (IC50) in test [1] is 1360 nM; in test [2], 122 nM.

In the case of `CCn1nnc2c(N3CCOCC3)nc(-c3ccc(NC(=O)Nc4ccc(C(=O)NCCCN5CCN(C)CC5)cc4)cc3)nc21` [Example 55, 4-({[4-(3-ethyl-7-morpholin-4-yl-3H-[1,2,3]triazolo[4,5-d]pyrimidin-5-yl)phenyl]carbamoyl}amino)-N-[3-(4-methylpiperazin-1-yl)propyl]benzamide], the IC50 amounted to 16.5 nM in test [1] and 1.5 nM in test [2].

Consider `Oc1cccc(-c2nc(N3CCOCC3)c3nnn(CCc4ccccn4)c3n2)c1` [Example 196, 3-[7-Morpholin-4-yl-3-(2-pyridin-2-yl-ethyl)-3H-[1,2,3]triazolo[4,5-d]pyrimidin-5-yl]-phenol], for which the IC50 in test [1] worked out at 1060 nM; in test [2], 75.5 nM.
